Reference: patent US10266567B2, “Peptides and compositions comprising same and uses thereof in the treatment of diseases” (Ariel-University Research and Development Company Ltd., priority 2015, dated 2019)
Entries after “also recorded” stand apart in the source; their conditions may differ. Bridge positions count the residues as written; N and C are the ends. Ends that are not written are not given here.

Experiments:
[1] = Elevated Plus Maze (EPM) test in metastatic melanoma mice; format: in vivo; settings: 0.3 mg/kg chronic, vs control, p<0.01
Protocol: The EPM apparatus comprises two closed (10 cm×45 cm×40 cm) and two open (10 cm×45 cm) arms that extend from a common central platform (10 cm×10 cm). The black apparatus is elevated to a height of 60 cm above floor level. The tests were conducted at the same time of the day (10.00-12.00 h) during the period of illumination in the mice's colony room. For habituation, all animals were placed in the experimental room one hour prior to the test. Each animal was placed at the center of the maze, facing one of the closed arms. Each mouse spent a five minute session in the EPM, during which the number of entries into open and closed arms as well as time spent in the open and closed arms were video scored.

B16-F10 melanoma cells = test: Metastatic melanoma mice model using B16F10 cells; format: in vivo, C57BL/6 mice
Protocol: Metastatic melanoma mice model using B16F10 cells. Murine B16F10 cells grown in RPMI were harvested by trypsinization and washed with PBS. The cells were counted and resuspended in PBS to final concentrations of 1.0×10^5 cells/mL and were maintained at 4° C. for immediate i.v inoculation into the tail vein of C57BL6 male mice (Harlan Labs). Next day, following tumor cell inoculation, these animals received i.p. injection of ALOS peptide or saline. Injections were performed daily throughout the working week. Mice were weighed daily on the day of injection.
For analysis of the peptides' effect on melanoma nodule formation all mice were sacrificed 18 days following the i.v. injection. Organs were dissected analyzed visually. The lungs of sacrificed mice were rinsed in saline and fixed with Bouin's solution. The total number of visible nodules on the lung surface per animal was counted.
For analysis of the peptides' effect on survival of melanoma cell-inoculated mice, animals were observed several times a week for signs of lethargy such as weight loss, hunched position and epilepsy. In order to lessen suffering, when these symptoms occurred, mice were euthanized with cervical dislocation after CO2 anesthesia. Survival time was recorded and long-term survivors were defined as animals surviving longer than 3 times the median survival of non-treated animals.
ALOS3 and ALOS4 block melanoma growth in metastatic melanoma mice model: An important clinical problem of malignant tumors is that lethality is mostly attributed to metastasis of the primary neoplastic cells. Complete eradication of the primary malignant cells is usually limited, due to location of the tumor, spread to distant organs and severe side effects caused by treatment. The effects of ALOS 3 and 4 on artificial metastasis, using highly metastatic melanoma B16-F10 cells was studied. 5×10^4 cells of B16-F10/0.2 ml/mouse were injected into the tail vein of 8 weeks old C57BL/6 mice. […] 18 days later the mice were sacrificed, lungs were dissected and the total number of visible nodules on the lung surface was counted. […]

CAPSPSRLC (disulfide 1-9 (inferred)) [ALOS3]
EPM performance (ratio of time spent in open arms to total time), anxiolytic effect [1]: significantly increased the performance of the mice; also recorded: exerted anxiolytic effect | Survival of metastatic melanoma mice (B16-F10 melanoma cells; 0.3 mg/kg daily i.p., 5×10^3 B16-F10 cells i.v., vs saline): significantly increased the survival; also recorded: significantly delayed animals' death | Number of metastatic melanoma sites (visible nodules) in the lungs (B16-F10 melanoma cells; 0.3 mg/kg daily i.p., 5×10^4 B16-F10 cells i.v., day 18): significantly blocked the number of metastatic melanoma sites in the lungs | Animals' weight during treatment course (B16-F10 melanoma cells; metastatic melanoma mice, ALOS vs saline): did not show weight loss
